Measured values: paper PMC7795096, “LPMO AfAA9_B and Cellobiohydrolase AfCel6A from A. fumigatus Boost Enzymatic Saccharification Activity of Cellulase Cocktail” (International Journal of Molecular Sciences, 2020)

Biological target: T1, AfCel6A (Aspergillus fumigatus, UniProt Q4WFK4)
T1 construct: gene cbhC; without predicted signal peptide (forward primer encodes QQTVW start) in pPICZαA, with N-terminal CBM1, His6 tag kept, secreted by Pichia pastoris X-33, about 65 kDa
T1 sequence (Q4WFK4 20-454): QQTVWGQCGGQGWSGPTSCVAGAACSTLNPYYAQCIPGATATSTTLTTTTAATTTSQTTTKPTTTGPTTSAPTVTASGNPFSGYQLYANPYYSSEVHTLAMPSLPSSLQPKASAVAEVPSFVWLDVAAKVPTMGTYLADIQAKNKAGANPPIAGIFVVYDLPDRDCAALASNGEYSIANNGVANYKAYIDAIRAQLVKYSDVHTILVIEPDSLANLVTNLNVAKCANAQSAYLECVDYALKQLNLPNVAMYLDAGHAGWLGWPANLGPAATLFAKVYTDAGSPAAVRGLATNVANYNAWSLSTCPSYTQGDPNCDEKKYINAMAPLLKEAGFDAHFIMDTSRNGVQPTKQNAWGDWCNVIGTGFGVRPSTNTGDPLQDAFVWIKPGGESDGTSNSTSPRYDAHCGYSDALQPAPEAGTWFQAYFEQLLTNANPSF
Test: activity at rising sugar concentration ([…]), substrate 4-nitrophenyl β-D-cellobioside
Format: biochemical
Conditions: product inhibition; the text also states 50% inhibition at 100 mM

OC[C@H]1O[C@@H](O[C@H]2[C@H](O)[C@@H](O)C(O)O[C@@H]2CO)[C@H](O)[C@@H](O)[C@@H]1O (stereo partly shown) [cellobiose]
IC50: > 100 mM
